According to ChEMBL document CHEMBL4020788, “Synthesis, SAR and molecular docking studies of benzo[d]thiazole-hydrazones as potential antibacterial and antifungal agents” (2017):
≈ marks a conversion by molar mass, not a printed value. Calls of active or inactive are those of the source. The rule behind the calls is not given here.

Columns and labels:
Format in all cases: functional
Staphylococcus aureus [1] = experiment: Antibacterial activity against methicillin resistant Staphylococcus aureus MRSA090 at 50 ug/ml after 24 hrs by agar well diffusion method; settings: MRSA090, 24 h, read-out: DIZ
Staphylococcus aureus [2] = experiment: Antibacterial activity against methicillin resistant Staphylococcus aureus MRSA090 incubated for overnight by microdilution method
Klebsiella pneumoniae [3] = experiment: Antibacterial activity against Klebsiella pneumoniae incubated for overnight by microdilution method
Staphylococcus aureus [4] = experiment: Antibacterial activity against methicillin resistant Staphylococcus aureus MRSA090 at 25 ug/ml after 24 hrs by agar well diffusion method; settings: MRSA090, 24 h, read-out: DIZ
Bacillus subtilis [5] = experiment: Antibacterial activity against Bacillus subtilis incubated for overnight by microdilution method
Staphylococcus aureus [6] = experiment: Antibacterial activity against methicillin resistant Staphylococcus aureus MRSA090 at 100 ug/ml after 24 hrs by agar well diffusion method; settings: MRSA090, 24 h, read-out: DIZ
Staphylococcus aureus [7] = experiment: Antibacterial activity against methicillin resistant Staphylococcus aureus MRSA090 at 75 ug/ml after 24 hrs by agar well diffusion method; settings: MRSA090, 24 h, read-out: DIZ
Escherichia coli [8] = experiment: Antibacterial activity against Escherichia coli incubated for overnight by microdilution method
Staphylococcus aureus [9] = experiment: Antibacterial activity against Staphylococcus aureus incubated for overnight by microdilution method
Aspergillus niger [10] = experiment: Antifungal activity against Aspergillus niger at 25 ug/ml after 48 hrs by agar well diffusion method; settings: for zone of inhibition at 25 µg/mL: read-out: DIZ
Fusarium oxysporum [11] = experiment: Antifungal activity against Fusarium oxysporum at 25 ug/ml after 48 hrs by agar well diffusion method; settings: for zone of inhibition at 25 µg/mL: read-out: DIZ
Fusarium oxysporum [12] = experiment: Antifungal activity against Fusarium oxysporum at 100 ug/ml after 48 hrs by agar well diffusion method; settings: read-out: DIZ
Aspergillus niger [13] = experiment: Antifungal activity against Aspergillus niger at 50 ug/ml after 48 hrs by agar well diffusion method; settings: for zone of inhibition at 50 µg/mL: read-out: DIZ
Fusarium verticillioides [14] = experiment: Antifungal activity against Fusarium moniliforme at 50 ug/ml after 48 hrs by agar well diffusion method
Fusarium oxysporum [15] = experiment: Antifungal activity against Fusarium oxysporum after 48 to 72 hrs by microdilution method
Fusarium verticillioides [16] = experiment: Antifungal activity against Fusarium moniliforme after 48 to 72 hrs by microdilution method
Aspergillus niger [17] = experiment: Antifungal activity against Aspergillus niger at 75 ug/ml after 48 hrs by agar well diffusion method; settings: for zone of inhibition at 75 µg/mL: read-out: DIZ
Fusarium oxysporum [18] = experiment: Antifungal activity against Fusarium oxysporum at 50 ug/ml after 48 hrs by agar well diffusion method; settings: for zone of inhibition at 50 µg/mL: read-out: DIZ
Fusarium verticillioides [19] = experiment: Antifungal activity against Fusarium moniliforme at 100 ug/ml after 48 hrs by agar well diffusion method; settings: for zone of inhibition at 100 µg/mL: read-out: DIZ
Aspergillus niger [20] = experiment: Antifungal activity against Aspergillus niger after 48 to 72 hrs by microdilution method
Fusarium oxysporum [21] = experiment: Antifungal activity against Fusarium oxysporum at 75 ug/ml after 48 hrs by agar well diffusion method; settings: for zone of inhibition at 75 µg/mL: read-out: DIZ
Fusarium verticillioides [22] = experiment: Antifungal activity against Fusarium moniliforme at 25 ug/ml after 48 hrs by agar well diffusion method
Aspergillus niger [23] = experiment: Antifungal activity against Aspergillus niger at 100 ug/ml after 48 hrs by agar well diffusion method; settings: read-out: DIZ
Fusarium verticillioides [24] = experiment: Antifungal activity against Fusarium moniliforme at 75 ug/ml after 48 hrs by agar well diffusion method; settings: for zone of inhibition at 75 µg/mL: read-out: DIZ
Klebsiella pneumoniae [25] = experiment: Antibacterial activity against Klebsiella pneumoniae at 100 ug/ml after 24 hrs by agar well diffusion method; settings: read-out: DIZ
Staphylococcus aureus [26] = experiment: Antibacterial activity against Staphylococcus aureus at 25 ug/ml after 24 hrs by agar well diffusion method; settings: read-out: DIZ
Escherichia coli [27] = experiment: Antibacterial activity against Escherichia coli at 75 ug/ml after 24 hrs by agar well diffusion method; settings: read-out: DIZ
Escherichia coli [28] = experiment: Antibacterial activity against Escherichia coli at 50 ug/ml after 24 hrs by agar well diffusion method; settings: read-out: DIZ
Staphylococcus aureus [29] = experiment: Antibacterial activity against Staphylococcus aureus at 50 ug/ml after 24 hrs by agar well diffusion method; settings: read-out: DIZ
Klebsiella pneumoniae [30] = experiment: Antibacterial activity against Klebsiella pneumoniae at 25 ug/ml after 24 hrs by agar well diffusion method; settings: read-out: DIZ
Escherichia coli [31] = experiment: Antibacterial activity against Escherichia coli at 100 ug/ml after 24 hrs by agar well diffusion method; settings: read-out: DIZ
Klebsiella pneumoniae [32] = experiment: Antibacterial activity against Klebsiella pneumoniae at 75 ug/ml after 24 hrs by agar well diffusion method; settings: read-out: DIZ
Escherichia coli [33] = experiment: Antibacterial activity against Escherichia coli at 25 ug/ml after 24 hrs by agar well diffusion method; settings: read-out: DIZ
Bacillus subtilis [34] = experiment: Antibacterial activity against Bacillus subtilis at 50 ug/ml after 24 hrs by agar well diffusion method; settings: read-out: DIZ
Staphylococcus aureus [35] = experiment: Antibacterial activity against Staphylococcus aureus at 100 ug/ml after 24 hrs by agar well diffusion method; settings: read-out: DIZ
Klebsiella pneumoniae [36] = experiment: Antibacterial activity against Klebsiella pneumoniae at 50 ug/ml after 24 hrs by agar well diffusion method; settings: read-out: DIZ
Staphylococcus aureus [37] = experiment: Antibacterial activity against Staphylococcus aureus at 75 ug/ml after 24 hrs by agar well diffusion method; settings: read-out: DIZ
Bacillus subtilis [38] = experiment: Antibacterial activity against Bacillus subtilis at 25 ug/ml after 24 hrs by agar well diffusion method; settings: read-out: DIZ
Bacillus subtilis [39] = experiment: Antibacterial activity against Bacillus subtilis at 100 ug/ml after 24 hrs by agar well diffusion method; settings: read-out: DIZ
Bacillus subtilis [40] = experiment: Antibacterial activity against Bacillus subtilis at 75 ug/ml after 24 hrs by agar well diffusion method; settings: read-out: DIZ

SMILES	zone of inhibition at 50 µg/mL (Staphylococcus aureus [1])	MIC (Staphylococcus aureus [2])	MIC (Klebsiella pneumoniae [3])	zone of inhibition at 25 µg/mL (Staphylococcus aureus [4])	MIC (Bacillus subtilis [5])	zone of inhibition at 100 µg/mL (Staphylococcus aureus [6])	zone of inhibition at 75 µg/mL (Staphylococcus aureus [7])	MIC (Escherichia coli [8])	MIC (Staphylococcus aureus [9])	zone of inhibition at 100 µg/mL (Fusarium oxysporum [12])	zone of inhibition at 100 µg/mL (Aspergillus niger [23])	zone of inhibition at 100 µg/mL (Klebsiella pneumoniae [25])	zone of inhibition at 25 µg/mL (Staphylococcus aureus [26])	zone of inhibition at 75 µg/mL (Escherichia coli [27])	zone of inhibition at 50 µg/mL (Escherichia coli [28])	zone of inhibition at 50 µg/mL (Staphylococcus aureus [29])	zone of inhibition at 25 µg/mL (Klebsiella pneumoniae [30])	zone of inhibition at 100 µg/mL (Escherichia coli [31])	zone of inhibition at 75 µg/mL (Klebsiella pneumoniae [32])	zone of inhibition at 25 µg/mL (Escherichia coli [33])	also measured
CO[C@H]1/C=C/O[C@@]2(C)Oc3c(C)c(O)c4c(O)c(c(/C=N/N5CCN(C)CC5)c(O)c4c3C2=O)NC(=O)/C(C)=C\C=C\[C@H](C)[C@H](O)[C@@H](C)[C@@H](O)[C@@H](C)[C@H](OC(C)=O)[C@@H]1C [RIFAMPIN]	27 mm	22 µg/mL (≈ 26.7 µM)	22 µg/mL (≈ 26.7 µM)	23 mm	21 µg/mL (≈ 25.5 µM)	33 mm	30 mm	22 µg/mL (≈ 26.7 µM)	21 µg/mL (≈ 25.5 µM)	–	–	–	–	–	–	–	–	–	–	–	–
CC(=O)N1CCN(c2ccc(OCC3COC(Cn4ccnc4)(c4ccc(Cl)cc4Cl)O3)cc2)CC1 (stereo not given) [KETOCONAZOLE]	–	–	–	–	–	–	–	–	–	38 mm	37 mm	–	–	–	–	–	–	–	–	–	zone of inhibition at 25 µg/mL (Aspergillus niger [10]): 24 mm; zone of inhibition at 25 µg/mL (Fusarium oxysporum [11]): 23 mm; zone of inhibition at 50 µg/mL (Aspergillus niger [13]): 28 mm; zone of inhibition at 50 µg/mL (Fusarium verticillioides [14]; read-out: DIZ): 25 mm; MIC (Fusarium oxysporum [15]): 24 µg/mL (≈ 45.2 µM); MIC (Fusarium verticillioides [16]): 27 µg/mL (≈ 50.8 µM); zone of inhibition at 75 µg/mL (Aspergillus niger [17]): 34 mm; zone of inhibition at 50 µg/mL (Fusarium oxysporum [18]): 22 mm; zone of inhibition at 100 µg/mL (Fusarium verticillioides [19]): 34 mm; MIC (Aspergillus niger [20]): 28 µg/mL (≈ 52.7 µM); zone of inhibition at 75 µg/mL (Fusarium oxysporum [21]): 32 mm; zone of inhibition at 25 µg/mL (Fusarium verticillioides [22]; read-out: DIZ): 21 mm; zone of inhibition at 75 µg/mL (Fusarium verticillioides [24]): 31 mm
COc1ccc(/C=N/Nc2nc3cccc(C)c3s2)c(OC)c1	18 mm	22 µg/mL (≈ 67.2 µM)	22 µg/mL (≈ 67.2 µM)	15 mm	24 µg/mL (≈ 73.3 µM)	27 mm	22 mm	25 µg/mL (≈ 76.4 µM)	26 µg/mL (≈ 79.4 µM)	17 mm	4 mm	15 mm	10 mm	24 mm	18 mm	15 mm	4 mm	23 mm	12 mm	13 mm	diameter of the inhibition zone (DIZ) (Aspergillus niger [10]): inactive; zone of inhibition at 25 µg/mL (Fusarium oxysporum [11]): 7 mm; diameter of the inhibition zone (DIZ) (Aspergillus niger [13]): inactive; diameter of the inhibition zone (DIZ) (Fusarium verticillioides [14]): inactive; diameter of the inhibition zone (DIZ) (Aspergillus niger [17]): inactive; zone of inhibition at 50 µg/mL (Fusarium oxysporum [18]): 12 mm; diameter of the inhibition zone (DIZ) (Fusarium verticillioides [19]): inactive; zone of inhibition at 50 µg/mL (Bacillus subtilis [34]): 19 mm; zone of inhibition at 100 µg/mL (Staphylococcus aureus [35]): 28 mm; zone of inhibition at 50 µg/mL (Klebsiella pneumoniae [36]): 9 mm; zone of inhibition at 75 µg/mL (Staphylococcus aureus [37]): 20 mm; zone of inhibition at 25 µg/mL (Bacillus subtilis [38]): 13 mm; zone of inhibition at 75 µg/mL (Fusarium oxysporum [21]): 14 mm; diameter of the inhibition zone (DIZ) (Fusarium verticillioides [22]): inactive; zone of inhibition at 100 µg/mL (Bacillus subtilis [39]): 29 mm; zone of inhibition at 75 µg/mL (Bacillus subtilis [40]): 25 mm; diameter of the inhibition zone (DIZ) (Fusarium verticillioides [24]): inactive
Cc1cccc2nc(N/N=C/c3ccc(O)cc3O)sc12	16 mm	20 µg/mL (≈ 66.8 µM)	24 µg/mL (≈ 80.2 µM)	12 mm	29 µg/mL (≈ 96.9 µM)	24 mm	20 mm	33 µg/mL (≈ 110 µM)	24 µg/mL (≈ 80.2 µM)	8 mm	21 mm	25 mm	14 mm	17 mm	12 mm	18 mm	12 mm	20 mm	21 mm	6 mm	zone of inhibition at 25 µg/mL (Aspergillus niger [10]): 8 mm; diameter of the inhibition zone (DIZ) (Fusarium oxysporum [11]): inactive; zone of inhibition at 50 µg/mL (Aspergillus niger [13]): 14 mm; diameter of the inhibition zone (DIZ) (Fusarium verticillioides [14]): inactive; MIC (Fusarium oxysporum [15]): 27 µg/mL (≈ 90.2 µM); MIC (Fusarium verticillioides [16]): 25 µg/mL (≈ 83.5 µM); zone of inhibition at 75 µg/mL (Aspergillus niger [17]): 17 mm; diameter of the inhibition zone (DIZ) (Fusarium oxysporum [18]): inactive; zone of inhibition at 100 µg/mL (Fusarium verticillioides [19]): 14 mm; zone of inhibition at 50 µg/mL (Bacillus subtilis [34]): 18 mm; zone of inhibition at 100 µg/mL (Staphylococcus aureus [35]): 26 mm; zone of inhibition at 50 µg/mL (Klebsiella pneumoniae [36]): 16 mm; zone of inhibition at 75 µg/mL (Staphylococcus aureus [37]): 23 mm; zone of inhibition at 25 µg/mL (Bacillus subtilis [38]): 12 mm; diameter of the inhibition zone (DIZ) (Fusarium oxysporum [21]): inactive; diameter of the inhibition zone (DIZ) (Fusarium verticillioides [22]): inactive; zone of inhibition at 100 µg/mL (Bacillus subtilis [39]): 28 mm; zone of inhibition at 75 µg/mL (Bacillus subtilis [40]): 24 mm; zone of inhibition at 75 µg/mL (Fusarium verticillioides [24]): 10 mm
O=C(N[C@H](CO)[C@H](O)c1ccc([N+](=O)[O-])cc1)C(Cl)Cl [CHLORAMPHENICOL]	22 mm	25 µg/mL (≈ 77.4 µM)	28 µg/mL (≈ 86.7 µM)	19 mm	27 µg/mL (≈ 83.6 µM)	31 mm	27 mm	25 µg/mL (≈ 77.4 µM)	27 µg/mL (≈ 83.6 µM)	–	–	36 mm	24 mm	32 mm	27 mm	28 mm	24 mm	38 mm	33 mm	23 mm	zone of inhibition at 50 µg/mL (Bacillus subtilis [34]): 25 mm; zone of inhibition at 100 µg/mL (Staphylococcus aureus [35]): 37 mm; zone of inhibition at 50 µg/mL (Klebsiella pneumoniae [36]): 29 mm; zone of inhibition at 75 µg/mL (Staphylococcus aureus [37]): 34 mm; zone of inhibition at 25 µg/mL (Bacillus subtilis [38]): 21 mm; zone of inhibition at 100 µg/mL (Bacillus subtilis [39]): 34 mm; zone of inhibition at 75 µg/mL (Bacillus subtilis [40]): 31 mm
